# Results as given in US8178658B2 (Dow AgroSciences, LLC, priority 2008, dated 2012).
# Read-outs that look alike come from different tables or passages of the source.
# Assays:
# [1] = system: beet armyworm (BAW; Spodoptera exigua: Lepidoptera); assay: 128-well diet tray assay on beet armyworm (BAW 50); format: in vivo; conditions: for BAW 50 ug/cm2: 50 μg/cm^2 of test compound on diet; for pest or weed control at 50 µg/cm2, 50 µg/cm2: Spodoptera exigua, 144 h, read-out: BAW 50 ug/cm2
# Procedure, shortened: (§1)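 Spodoptera exigua eggs on artificial diet in 96-well plates, surface-treated with 12 μg compound in DMSO-acetone-water; dark, 29° C, mortality at 6 d, six replicates. 128-well trays: second-instar larvae on diet treated at 50 μg/cm^2, 25° C, 14:10 light-dark, six days, mortality averaged over eight wells.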
# [2] = system: beet armyworm (BAW; Spodoptera exigua: Lepidoptera); assay: 96-well microtiter plate-based high throughput (HTS) diet bioassay on beet armyworm (BAW HTS); format: in vivo; conditions: for pest or weed control at 12 µg/well, 12 µg/well: Spodoptera exigua, 144 h, read-out: BAW HTS
# Procedure, shortened: as §1
# [3] = 128-well diet tray assay, second instar BAW larvae, mortality class
# [4] = 96-well HTS diet bioassay, BAW eggs, 12 μg test compound per well, mortality at 6 d post-treatment, mortality class
# [5] = 96-well microtiter plate HTS diet assay, 12 μg test compound per well, BAW eggs, mortality at 6 d post-treatment, mortality class
# [6] = 96-well HTS diet assay, BAW eggs, 12 μg test compound per well, mortality at 6 d post-treatment, mortality class
Structure (SMILES),"BAW 50 ug/cm2 [1, 3]","BAW HTS [2, 4]","BAW HTS [2, 5]","pest or weed control at 50 µg/cm2, 50 µg/cm2 [1] [%]","pest or weed control at 12 µg/well, 12 µg/well [2] [%]","pest or weed control at 50 µg/cm2, 50 µg/cm2 ([1]; 128-well diet tray assay, second instar BAW larvae, 50 μg/cm2 of test compound on diet, mortality class) [%]","pest or weed control at 12 µg/well, 12 µg/well [2, 4] [%]","BAW HTS [2, 6]"
COC1C(C)OC(ON=Cc2ccc(-c3cn(-c4ccc(OCC(F)(F)F)cc4)cn3)cc2)C(OC)C1OC (centres unmarked) [Compound 37],A (the compound was tested and at least 50 percent mortality was observed),B (either (1) the compound was tested and less than 50 percent mortality was observed or (2) the compound was not tested),B (either (1) the compound was tested and less than 50 percent mortality was observed or (2) the compound was not tested),–,–,–,–,–
COC1C(C)OC(ON=Cc2ccc(-c3cn(-c4ccc(C(C)C)cc4)cn3)cc2)C(OC)C1OC (centres unmarked) [Compound 46],A (the compound was tested and at least 50 percent mortality was observed),B (either (1) the compound was tested and less than 50 percent mortality was observed or (2) the compound was not tested),B (either (1) the compound was tested and less than 50 percent mortality was observed or (2) the compound was not tested),–,–,–,–,–
CO[C@@H]1[C@@H](OC)[C@H](C)O[C@@H](O/N=C/c2ccc(-n3cnc(-c4cccnc4)n3)cc2)[C@@H]1OC [Compound 71],B (either (1) the compound was tested and less than 50 percent mortality was observed or (2) the compound was not tested),A (the compound was tested and at least 50 percent mortality was observed),A (the compound was tested and at least 50 percent mortality was observed),–,–,–,–,–
CCCOC1C(OC)C(C)OC(ON=Cc2ccc(-c3ncn(-c4ccc(C(F)(F)C(F)(F)C(F)(F)F)cc4)n3)cc2)C1OC (centres unmarked) [Compound 110],A (the compound was tested and at least 50 percent mortality was observed),B (either (1) the compound was tested and less than 50 percent mortality was observed or (2) the compound was not tested),B (either (1) the compound was tested and less than 50 percent mortality was observed or (2) the compound was not tested),–,–,–,–,–
"CCO[C@@H]1[C@@H](OC)[C@H](C)O[C@H](OC(=O)Nc2ccc(-c3ncn(-c4ccc(OC(F)(F)C(F)(F)F)cc4)n3)cc2)[C@@H]1OC [Compound 202, {4-[1-(4-pentafluoroethyloxyphenyl)-1H-[1,2,4]triazol-3-yl]-phenyl}-carbamic acid (2R,3R,4R,5S,6S)-4-ethoxy-3,5-dimethoxy-6-methyl-tetrahydropyran-2-yl ester]",A (the compound was tested and at least 50 percent mortality was observed),–,A (the compound was tested and at least 50 percent mortality was observed),> 50,> 50,–,–,–
"CO[C@@H]1[C@@H](OC)[C@H](C)O[C@@H](ON=Cc2ccc(-c3ncn(-c4ccc(S(=O)(=O)C(F)(F)F)cc4)n3)cc2)[C@@H]1OC [Compound 104, 4-[1-(4-trifluoromethanesulfonylphenyl)-1H-[1,2,4]triazol-3-yl]-benzaldehyde O-((2S,3R,4R,5S,6S)-3,4,5-trimethoxy-6-methyl-tetrahydropyran-2-yl)-oxime]",A (the compound was tested and at least 50 percent mortality was observed),–,B (either (1) the compound was tested and less than 50 percent mortality was observed or (2) the compound was not tested),–,–,> 50,< 50,–
CO[C@@H]1[C@@H](OC)[C@H](C)O[C@@H](OC(=O)Nc2ccc(-c3nc(C)n(-c4ccc(OC(F)(F)F)cc4)n3)cc2)[C@@H]1OC [Compound 194],A (the compound was tested and at least 50 percent mortality was observed),–,A (the compound was tested and at least 50 percent mortality was observed),–,–,–,–,A (the compound was tested and at least 50 percent mortality was observed)
COC1C(C)OC(ON=Cc2ccc(-n3cnc(-c4ccc(Br)cc4)c3)cc2)C(OC)C1OC (centres unmarked) [Compound 16],B (either (1) the compound was tested and less than 50 percent mortality was observed or (2) the compound was not tested),A (the compound was tested and at least 50 percent mortality was observed),A (the compound was tested and at least 50 percent mortality was observed),–,–,–,–,–
COC1C(C)OC(ON=Cc2ccc(-c3ncnc(-c4ccc(C(F)(F)F)cc4)n3)cc2)C(OC)C1OC (centres unmarked) [Compound 157],B (either (1) the compound was tested and less than 50 percent mortality was observed or (2) the compound was not tested),–,A (the compound was tested and at least 50 percent mortality was observed),–,–,–,–,A (the compound was tested and at least 50 percent mortality was observed)
COC1C(C)OC(ON=Cc2ccc(-c3cn(-c4cc(I)ccn4)cn3)cc2)C(OC)C1OC (centres unmarked) [Compound 23],B (either (1) the compound was tested and less than 50 percent mortality was observed or (2) the compound was not tested),B (either (1) the compound was tested and less than 50 percent mortality was observed or (2) the compound was not tested),B (either (1) the compound was tested and less than 50 percent mortality was observed or (2) the compound was not tested),–,–,–,–,–
CCOC1C(OC)C(C)OC(ON=Cc2ccc(-c3ncn(-c4ccc(OC(F)(F)F)cc4)n3)cn2)C1OC (centres unmarked) [Compound 123],A (the compound was tested and at least 50 percent mortality was observed),B (either (1) the compound was tested and less than 50 percent mortality was observed or (2) the compound was not tested),B (either (1) the compound was tested and less than 50 percent mortality was observed or (2) the compound was not tested),–,–,–,–,–
COC1C(C)OC(ON=Cc2ccc(-c3cn(-c4cccc(F)n4)cn3)cc2)C(OC)C1OC (centres unmarked) [Compound 22],B (either (1) the compound was tested and less than 50 percent mortality was observed or (2) the compound was not tested),B (either (1) the compound was tested and less than 50 percent mortality was observed or (2) the compound was not tested),B (either (1) the compound was tested and less than 50 percent mortality was observed or (2) the compound was not tested),–,–,–,–,–
COc1ccc(-c2cn(-c3ccc(OC(F)(F)F)cc3)cn2)cc1C=NOC1OC(C)C(OC)C(OC)C1OC (centres unmarked) [Compound 25],B (either (1) the compound was tested and less than 50 percent mortality was observed or (2) the compound was not tested),B (either (1) the compound was tested and less than 50 percent mortality was observed or (2) the compound was not tested),B (either (1) the compound was tested and less than 50 percent mortality was observed or (2) the compound was not tested),–,–,–,–,–
COC1C(C)OC(ON=Cc2ccc(-c3ccn(-c4ccc(SC)cc4)n3)cc2)C(OC)C1OC (centres unmarked) [Compound 9],A (the compound was tested and at least 50 percent mortality was observed),B (either (1) the compound was tested and less than 50 percent mortality was observed or (2) the compound was not tested),B (either (1) the compound was tested and less than 50 percent mortality was observed or (2) the compound was not tested),–,–,–,–,–
CCOC1C(OC)C(C)OC(ON=Cc2ccc(-c3ncc(-c4ccc(C)cc4)cn3)cc2)C1OC (centres unmarked) [Compound 150],B (either (1) the compound was tested and less than 50 percent mortality was observed or (2) the compound was not tested),–,B (either (1) the compound was tested and less than 50 percent mortality was observed or (2) the compound was not tested),–,–,–,–,B (either (1) the compound was tested and less than 50 percent mortality was observed or (2) the compound was not tested)
CCO[C@@H]1[C@@H](OC)[C@H](C)O[C@@H](OC(=O)Nc2ccc(-c3ncn(-c4ccc(OC(F)(F)C(F)(F)C(F)(F)F)cc4)n3)cc2)[C@@H]1OC [Compound 225],A (the compound was tested and at least 50 percent mortality was observed),–,B (either (1) the compound was tested and less than 50 percent mortality was observed or (2) the compound was not tested),–,–,–,–,B (either (1) the compound was tested and less than 50 percent mortality was observed or (2) the compound was not tested)
CCOC1C(OC)C(C)OC(ON=Cc2cccc(-c3ncc(-c4ccccc4OC(F)(F)F)cn3)c2)C1OC (centres unmarked) [Compound 147],B (either (1) the compound was tested and less than 50 percent mortality was observed or (2) the compound was not tested),–,B (either (1) the compound was tested and less than 50 percent mortality was observed or (2) the compound was not tested),–,–,–,–,B (either (1) the compound was tested and less than 50 percent mortality was observed or (2) the compound was not tested)
COC1C(C)OC(ON=Cc2cccc(-c3cn(-c4ccc(OC(F)(F)F)cc4)cn3)c2)C(OC)C1OC (centres unmarked) [Compound 58],A (the compound was tested and at least 50 percent mortality was observed),A (the compound was tested and at least 50 percent mortality was observed),A (the compound was tested and at least 50 percent mortality was observed),–,–,–,–,–
COC1C(C)OC(ON=Cc2ccc(-c3csc(-c4ccc(OCC(F)(F)F)nc4)n3)cc2)C(OC)C1OC (centres unmarked) [Compound 64],A (the compound was tested and at least 50 percent mortality was observed),A (the compound was tested and at least 50 percent mortality was observed),A (the compound was tested and at least 50 percent mortality was observed),–,–,–,–,–
